US12227509B2, “Dihydropyrazolopyrazinone derivative having MGAT2 inhibitory activity” (Shionogi & Co., Ltd., priority 2019, dated 2025)
In brackets after ≈: the same amount, converted by molar mass.

Tests used:
[1] = Solubility test (1% DMSO addition, pH 6.8 artificial intestinal juice); format: physicochemical; settings: kinetic from dmso stock, 16 hours at 25° C.
Experimental: The solubility of the compound of the present invention was determined under 1% DMSO addition conditions. 10 mmol/L solution of the compound was prepared with DMSO, and 6 μL of the solution of the compound of the present invention was added to 594 μL of pH 6.8 artificial intestinal juice (118 mL of 0.2 mol/L NaOH test solution and water were added to 250 mL of 0.2 mol/L potassium dihydrogen phosphate test solution to reach 1000 mL). The mixture was left standing for 16 hours at 25° C., and the mixture was vacuum-filtered. The filtrate was two-fold diluted with methanol/water=1/1 (V/V), and the compound concentration in the filtrate was measured with HPLC or LC/MS/MS by the absolute calibration method. The dilution concentration and the dilution solvent were changed as necessary.

[2] = Metabolism stability test (human liver microsomes); format: in vitro ADME; settings: compound concentration 0.5 μmol/L, 37° C., 30 minutes, NADPH
Experimental: Using commercially available pooled human hepatic microsomes, the compound of the present invention was reacted for a constant time, a remaining rate was calculated by comparing a reacted sample and an unreacted sample, thereby, a degree of metabolism of the compound of the present invention in liver was assessed.
A reaction was performed (oxidative reaction) at 37° C. for 0 minute or 30 minutes in the presence of 1 mmol/L NADPH in 0.2 mL of a buffer (50 mmol/L Tris-HCl pH 7.4, 150 mmol/L potassium chloride, 10 mmol/L magnesium chloride) containing 0.5 mg protein/mL of human liver microsomes. After the reaction, 50 μL of the reaction solution was added to 100 μL of a methanol/acetonitrile=1/1 (v/v) solution, mixed and centrifuged at 3000 rpm for 15 minutes. The compound of the present invention in the supernatant was quantified by LC/MS/MS, and a remaining amount of the compound of the present invention after the reaction was calculated, letting a compound amount at 0 minute reaction time to be 100%.

hERG (IKr) = hERG (IKr) (Homo sapiens (Human), UniProt Q12809); assay: hERG test; format: cell-based; settings: CHO cells expressing hERG channel, pH 7.4, 10 μmol/L of test compound, read-out: % inhibition of hERG tail peak current (IKr)
Chain of hERG (IKr) (Q12809 whole entry): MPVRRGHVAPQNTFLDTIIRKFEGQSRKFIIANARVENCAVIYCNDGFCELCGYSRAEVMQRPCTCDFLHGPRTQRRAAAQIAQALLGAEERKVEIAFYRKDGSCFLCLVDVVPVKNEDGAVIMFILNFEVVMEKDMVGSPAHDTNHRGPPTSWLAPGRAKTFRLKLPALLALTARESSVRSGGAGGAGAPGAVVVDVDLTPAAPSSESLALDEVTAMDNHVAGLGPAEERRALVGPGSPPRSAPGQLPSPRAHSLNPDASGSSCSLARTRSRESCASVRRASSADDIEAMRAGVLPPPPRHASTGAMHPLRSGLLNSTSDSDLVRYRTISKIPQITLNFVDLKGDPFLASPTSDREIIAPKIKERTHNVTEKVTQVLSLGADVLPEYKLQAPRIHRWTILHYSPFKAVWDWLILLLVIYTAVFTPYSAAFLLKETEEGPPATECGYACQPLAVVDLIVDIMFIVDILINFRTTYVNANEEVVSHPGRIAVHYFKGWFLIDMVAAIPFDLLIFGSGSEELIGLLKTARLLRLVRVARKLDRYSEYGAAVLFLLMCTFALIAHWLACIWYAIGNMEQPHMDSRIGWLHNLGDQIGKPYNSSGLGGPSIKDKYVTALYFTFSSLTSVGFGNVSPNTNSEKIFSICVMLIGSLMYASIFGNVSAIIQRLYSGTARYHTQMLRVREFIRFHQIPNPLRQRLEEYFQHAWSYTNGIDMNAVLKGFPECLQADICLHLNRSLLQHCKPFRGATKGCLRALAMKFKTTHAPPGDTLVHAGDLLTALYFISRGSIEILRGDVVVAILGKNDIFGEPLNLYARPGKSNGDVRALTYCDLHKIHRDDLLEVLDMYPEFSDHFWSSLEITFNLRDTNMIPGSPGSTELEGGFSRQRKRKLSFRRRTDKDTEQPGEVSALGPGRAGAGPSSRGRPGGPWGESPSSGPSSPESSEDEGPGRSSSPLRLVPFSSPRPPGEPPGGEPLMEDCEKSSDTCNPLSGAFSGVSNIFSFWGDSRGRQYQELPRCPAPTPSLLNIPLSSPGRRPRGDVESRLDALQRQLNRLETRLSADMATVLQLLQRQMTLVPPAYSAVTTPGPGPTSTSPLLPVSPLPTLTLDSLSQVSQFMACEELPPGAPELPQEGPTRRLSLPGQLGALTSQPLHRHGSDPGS
Text: For the purpose of assessing risk of an electrocardiogram QT interval prolongation of the compound of the present invention, effects of the compound of the present invention on delayed rectifier K^+ current (IKr), which plays an important role in the ventricular repolarization process, was studied using CHO cells expressing human ether-a-go-go related gene (hERG) channel.
After a cell was retained at a membrane potential of −80 mV by whole cell patch clamp method using an automated patch clamp system (QPatch; Sophion BIoscience A/S), IKr induced by application of a leak potential of −50 mV followed by depolarization pulse stimulation at +20 mV for 2 seconds and, further, repolarization pulse stimulation at −50 mV for 2 seconds, was recorded. […] From the recording IKr, an absolute value of the tail peak current was measured based on the current value at the resting membrane potential using analysis software (Falster Patch; Sophion Bioscience A/S). Further, the % inhibition of tail peak current for the compound of the present invention relative to the tail peak current after application of the vehicle is calculated to assess influence of the compound of the present invention on IKr.

recombinant human MGAT2 = recombinant human MGAT2 (Homo sapiens (Human), UniProt Q3SYC2); assay: Measurement of human MGAT2 inhibitory activity; format: biochemical; settings: concentration exhibiting 50% enzyme inhibition; recombinant human MGAT2, 2-Oleoylglycerol/Oleoyl-CoA
Chain of recombinant human MGAT2 (Q3SYC2 whole entry): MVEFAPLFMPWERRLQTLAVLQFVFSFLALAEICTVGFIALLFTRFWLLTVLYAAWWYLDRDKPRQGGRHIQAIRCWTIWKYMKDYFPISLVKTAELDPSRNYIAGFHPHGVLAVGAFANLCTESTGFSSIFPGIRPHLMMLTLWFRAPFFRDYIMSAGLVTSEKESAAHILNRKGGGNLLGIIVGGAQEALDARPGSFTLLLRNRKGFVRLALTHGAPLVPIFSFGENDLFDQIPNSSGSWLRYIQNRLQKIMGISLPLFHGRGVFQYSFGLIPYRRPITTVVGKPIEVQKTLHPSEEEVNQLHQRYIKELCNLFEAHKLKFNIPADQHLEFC
In short: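 Membrane fraction of baculovirus-infected Sf-9 cells expressing N-terminally Flag-tagged full-length human MGAT2, in 100 mmol/L phosphate pH 7.4 with 2 mmol/L DTT. The substrate solution held 30 μmol/L 2-oleoylglycerol and 10 μmol/L oleoyl-CoA. After 1 h at room temperature, diolein/diolein-d5 ratio was read by ESI Q-TOF MS and % inhibition derived against enzyme and no-enzyme controls.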

Powder solubility test = format: physicochemical; settings: pH 6.8, aqueous buffer, thermodynamic from solid, JP-2 solution, 37° C.
Experimental: Appropriate quantity of the compound of the present invention was put in suitable containers. 200 μL of JP-1 solution (water was added to 2.0 g of sodium chloride and 7.0 mL of hydrochloric acid to reach 1000 mL), 200 μL of JP-2 solution (500 mL of water was added to 500 mL of phosphate buffer (pH 6.8)) or 20 mmol/L sodium taurocholate (TCA)/JP-2 solution (JP-2 solution was added to 1.08 g of TCA to reach 100 mL) was independently added to each container. When total amount was dissolved after adding the test reagent, the compound of the present invention was added appropriately. After sealing and shaking at 37° C. for 1 hour, solution was filtrated and 100 μL of methanol was added to 100 μL of each filtrate to dilute two-fold. The dilution ratio and the dilution solvent were changed as necessary. After checking that there was no bubble and deposit, the container was sealed and shaken. The compound of the present invention was measured using HPLC by absolute calibration curve method.

Structure (SMILES) | solubility at 16 h [1] [µM] | Remaining rate [2] [%] | IC50 (recombinant human MGAT2) [nM] | solubility at 1 h (Powder solubility test) [µM] | inhibition at 10 min, 10 μmol/L (hERG (IKr)) [%]
Cc1ccc(-c2nn3c(c2NC(=O)CS(C)(=O)=O)C(=O)N[C@@]2(CCc4cc(OCC(F)(F)F)ccc42)C3)nc1 [Compound I-6] | > 50 | 92.4 | – | – | –
N#Cc1ccc(-c2nn3c(c2NC(=O)CC(F)(F)F)C(=O)N[C@@]2(CCc4cc(OCC(F)(F)F)ccc42)C3)nc1 [Compound I-14] | 41.8 (≈ 23.6 µg/mL) | 103 | 46.1 | – | 25.5

Now from value to compound, other results behind:

solubility at 16 h [1] [µM] | Remaining rate [2] [%] | IC50 (recombinant human MGAT2) [nM] | solubility at 1 h (Powder solubility test) [µM] | Structure (SMILES) | inhibition at 10 min, 10 μmol/L (hERG (IKr)) [%]
– | 74.5 | – | – | Cc1ccc(-c2nn3c(c2NC(=O)CS(C)(=O)=O)C(=O)N[C@@]2(CCc4cc(OCC(F)(F)F)ccc42)C3)cc1 [Compound I-20] | 27.8
> 50 | 78.1 | – | 8.64 (≈ 4.67 µg/mL) | CS(=O)(=O)CC(=O)Nc1c(CCC2CC2)nn2c1C(=O)N[C@@]1(CCc3cc(OCC(F)(F)F)ccc31)C2 [Compound I-46] | –
> 50 | 88.4 | – | – | CS(=O)(=O)CC(=O)Nc1c(CCC(F)(F)F)nn2c1C(=O)N[C@@]1(CCc3cc(OCC(F)(F)F)ccc31)C2 [Compound I-58] | –
